Data reported in paper PMC9658545, “From Nature to Synthetic Compounds: Novel 1(N),2,3 Trisubstituted-5-oxopyrrolidines Targeting Multiple Myeloma Cells” (International Journal of Molecular Sciences, 2022).
In brackets after ≈: the same amount, converted by molar mass. Like-named read-outs stand apart in the source and are kept apart here. Blank lines part the entries; values can stand above or below the compound they belong to.

How the values were obtained:
RPMI 8226 cells [1] = assay: MTT assay of cell viability in RPMI 8226 cells; assay type: cell-based, Human; conditions: for fold more active than the reference compound Hib-ester: after 24 h of treatment; for profile in MTT and Trypan blue tests compared with racemate: enantiomers of 13, 10, 100 and 500 µM
Protocol: RPMI 8226 cells were treated with different concentrations of all compounds (10, 100 and 500 µM) at 24 h. The concentrations have been chosen based on the results previously obtained with Hib-ester. MTT assay was performed to assess cell viability and calculate the IC50 (Table 1). For compounds not showing a significant reduction of cell viability at the concentration of 500 µM, the IC50 was not calculated, and they have been considered not effective. Untreated cells were used as control (CTRL).
Human multiple myeloma RPMI 8226 cells were cultured in RPMI 1640 medium supplemented with 10% fetal bovine serum, 1% L-glutamine and 1% penicillin and streptomycin (Euroclone, Italy). Human glioblastoma U87-MG cells were cultured in DMEM low glucose supplemented with 10% fetal bovine serum, 1% L-glutamine and 1% penicillin and streptomycin (Euroclone, Italy). Cells were incubated in a humidified incubator at 37 °C and 5% CO2. A stock solution of all compounds in DMSO (50 mM) was prepared and then directly diluted in culture medium.
Cells were seeded in 96-well plates at a density of 1 × 10^4 cells/well and were treated after 24 h with RA, AM or SU molecules. After 24 h, a 3-(4,5-dimethylthiazol-2-yl)-2,5-diphenyltetrazolium bromide (MTT, Sigma Aldrich, United States) solution was added to each well to reach a final concentration of 0.5 mg/mL. After 4 h of incubation (4 h for RPMI 8226 cells), formazan salt was solubilized in ethanol and absorbance was measured at 570 nm in a microplate reader (BMG-Labtech, Ortenberg, Germany).

RPMI 8226 cells [2] = assay: MTT assay of cell viability in RPMI 8226 cells; assay type: cell-based, Human; conditions: for change of MTT efficacy over time: 24, 48 and 72 h; for IC50: Homo sapiens
proteasome [3] = molecular target: T1, proteasome (Homo sapiens, UniProt P28074); assay: Proteasome activity assay on lysates of treated RPMI 8226 cells (Suc-LLVY-AMC substrate); assay type: cell-based; conditions: for IC50: RPMI 8226 cells treated 24 h, read-out: IC50 (proteasome inhibition); for proteasome inhibition activity: after 24 h, 10, 100 and 500 µM
T1 construct: endogenous in cells; host or cells: RPMI 8226 (human multiple myeloma)
T1 sequence (P28074 60-263): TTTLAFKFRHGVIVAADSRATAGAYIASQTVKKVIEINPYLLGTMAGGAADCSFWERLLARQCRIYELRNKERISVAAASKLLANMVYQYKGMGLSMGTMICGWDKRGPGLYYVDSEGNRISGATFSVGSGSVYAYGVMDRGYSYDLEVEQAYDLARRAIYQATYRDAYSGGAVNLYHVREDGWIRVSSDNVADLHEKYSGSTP
Protocol: RPMI 8226 cells treated with Bortezomib (BTZ) 1, 5 and 10 nM were used as positive control for all experiments (Figure S2, Supplementary Information).
Cells not used in the Trypan blue assay were lysed to assess proteasome activity. Briefly, cells were resuspended in a lysis buffer (50 mM Hepes Ph 7.5, 150 mM NaCl, 10% glycerol, 1% Triton X-100, 1.5 mM MgCl2, 5 mM EGTA) and were mechanically lysed with a vortex. Obtained protein lysates were centrifuged at 13,500 RPM for 15 min and were quantified using the Bradford method. Some 40 µg of proteins were then loaded in black-96-well plate to perform the proteasome activity assay. In each well, 7.6 mg/mL proteasome substrate (N-Succinyl-Leu-Leu-Val-Tyr-7-Amido-4-Methylcoumarin, Sigma Aldrich, United States) and proteasome buffer (250 mM Hepes pH 7.5, 5 mM EDTA pH 8.0, 0.5% NP-40, 0.01% SDS) were added to the proteins. Fluorescence was measured after 2 h of incubation in a microplate reader (excitation 380 nm, emission 460 nm; BMG-Labtech, Ortenberg, Germany).
RPMI 8226 cells were treated with different concentrations (10, 100 and 500 µM) of each compound and, after 24 hours, proteasome activity assay was performed.
Supplementary Figure S1. Proteasome activity of RPMI 8226 cells treated with (2R,3R/2S,3S)-13, 14, 16 and 20. Proteasome activity was evaluated in cells treated for 24 hours with different concentrations (10, 100 and 500 µM) of compounds. The graphs represent the mean proteasome activity ± SD, compared to untreated controls, arbitrarily set to 100%. ** p < 0.01 vs CTRL.
RPMI 8226 cells treated with BTZ 1, 5 and 10 nM were used as positive control for all experiments. […]
The graphs represent the mean cell number ± SD of viable and dead cells. ** p < 0.01 vs CTRL; C) Proteasome activity of RPMI 8226 cells treated with BTZ. Proteasome activity was evaluated in cells treated for 24 hours with different concentrations (1, 5 and 10 nM) of BTZ. The graphs represent the mean proteasome activity ± SD, compared to untreated controls, arbitrarily set to 100%. ** p < […]

[4] = tested on: human multiple myeloma RPMI 8226 cells; design: method as in PMID 31323932; conditions: at 24 h; cited from earlier work
[5] = design: method as in PMID 31323932; conditions: cited from earlier work
proteasome [6] = tested on: proteasome; design: method as in PMID 31323932; conditions: cited from earlier work
[7] = design: method as in PMID 31323932; conditions: cited from earlier work; remark: listed apart in the source
RPMI 8226 cells [8] = assay: Trypan blue vital count assay (viable and dead cells); assay type: cell-based, Human; conditions: 100 µM
Protocol: RPMI 8226 cells treated with Bortezomib (BTZ) 1, 5 and 10 nM were used as positive control for all experiments (Figure S2, Supplementary Information). Cells were seeded in 6-well plates at a density of 2.5 × 10^5 cells/well and were treated after 24 h with different concentrations of RA molecules. After 24 h of treatment, cells were collected and stained with Trypan blue vital dye (Sigma Aldrich, Burlington, VT, USA). Viable and dead cells were then counted in a hemocytometer under a light microscope.

[9] = 24 h, MTT assay, concentrations 10, 100 and 500 µM, n.e.* = compounds not effective at 500 µM
[10] = 24 h, MTT assay, concentrations 10, 100 and 500 µM, n.e.* = compounds not effective at 500 µM, read-out: IC50 μM RPMI8226
[11] = 24 h of treatment, read-out: IC50 (MTT)
[12] = Homo sapiens, RPMI-8226, 24 h, MTT assay, concentrations 10, 100 and 500 µM, n.e.* = compounds not effective at 500 µM, read-out: IC50 μM RPMI8226
[13] = Homo sapiens, RPMI-8226, 24 h of treatment, read-out: IC50 (MTT)

Compound: COC(=O)[C@@H]1CC(=O)O[C@@H]1c1ccccc1 [(2R,3R/2S,3S)-2, Methyl (2S,3R)-5-Oxo-2phenyltetrahydrofuran-3-Carboxylate]
IC50 μM RPMI8226 (RPMI 8226 cells [1]; [9]): n.e.*

Compound: Methyl 1-Benzyl-2-(3,5-dimethoxyphenyl)-5-oxopyrrolidine-3-carboxylate [(2R,3R/2S,3S)-16]
IC50 (RPMI 8226 cells [1]; [10]): 138 ± 27 µM | IC50 (RPMI 8226 cells [1]; [11]): < 350 µM | fold more active than the reference compound Hib-ester (RPMI 8226 cells [1]): at least 6 fold | change of MTT efficacy over time (RPMI 8226 cells [2]): did not show a significant increase in efficacy over time

Compound: COC(=O)C1CCC(=O)N(Cc2ccccc2)C1c1ccccc1 [(2R,3R/2S,3S)-20, Methyl 1-Benzyl-6-oxo-2-phenylpiperidine-3-carboxylate]
IC50 (RPMI 8226 cells [1]; [12]): 152 ± 29 µM | IC50 (RPMI 8226 cells [1]; [13]): < 350 µM | fold more active than the reference compound Hib-ester (RPMI 8226 cells [1]): at least 6 fold | change of MTT efficacy over time (RPMI 8226 cells [2]): did not show a significant increase in efficacy over time

Compound: COC(=O)C1CCC(=O)N(CC(C)C)C1c1ccccc1 [(2R,3R/2S,3S)-18, Methyl 1-Isobutyl-6-oxo-2-phenylpiperidine-3-carboxylate]
IC50 (RPMI 8226 cells [1]; [12]): 301 ± 29 µM | IC50 (RPMI 8226 cells [1]; [13]): < 350 µM | fold more active than the reference compound Hib-ester (RPMI 8226 cells [1]): at least 6 fold

Compound: COC(=O)C1CC(=O)N(CC(C)C)C1c1ccccc1 [(2R,3R/2S,3S)-10, Methyl 1-Isobutyl-5-oxo-2-phenylpyrrolidine-3-carboxylate]
IC50 (RPMI 8226 cells [1]; [12]): 265 ± 49 µM | IC50 (RPMI 8226 cells [1]; [13]): < 350 µM | fold more active than the reference compound Hib-ester (RPMI 8226 cells [1]): at least 6 fold

Compound: COC(=O)C1OC(=O)CC1(O)C(=O)OC (centres unmarked) [Hib-ester]
IC50 (antiproliferative properties) [4]: 450 mg/L (≈ 2060 µM) | effect on migration and cell invasion [5]: reduce migration and cell invasion | proteasome inhibition (proteasome [6]): inhibit proteasome | neurotoxic effects [7]: without neurotoxic effects

Compound: Methyl 2-(3,5-Dimethoxyphenyl)-1-isobutyl-5-oxopyrrolidine-3-carboxylate [(2R,3R/2S,3S)-12]
IC50 (RPMI 8226 cells [1]; [10]): 263 ± 41 µM | IC50 (RPMI 8226 cells [1]; [11]): < 350 µM | fold more active than the reference compound Hib-ester (RPMI 8226 cells [1]): at least 6 fold

Compound: COC(=O)C1CNC(=O)C1 (racemic) [(S/R)-6]
IC50 μM RPMI8226 (RPMI 8226 cells [1]; [9]): n.e.*

Compound: 2-(3,5-Dimethoxyphenyl)-1-isobutyl-5-oxopyrrolidine-3-carboxylic Acid [(2R,3R/2S,3S)-11]
IC50 μM RPMI8226 (RPMI 8226 cells [1]; [9]): n.e.*

Compound: CC(C)CN1C(=O)CC(C(=O)O)C1c1ccccc1 [(2R,3R/2S,3S)-9, 1-Isobutyl-5-oxo-2-phenylpyrrolidine 3-Carboxylic Acid]
IC50 μM RPMI8226 (RPMI 8226 cells [1]; [9]): n.e.* | melting point: 120.6 to 122.7 °C

Compound: COC(=O)C1CC(=O)NC1C(=O)OC [(2R,3R/2S,3S)-8, Dimethyl 5-Oxopyrolidine-2,3-dicarboxylate]
IC50 μM RPMI8226 (RPMI 8226 cells [1]; [9]): n.e.*

Compound: O=C(O)C1CC(=O)N(Cc2ccccc2)C1c1ccccc1 (racemic) [(2R,3R/2S,3S)-13, 1-Benzyl-5-oxo-2-phenylpyrrolidine 3-Carboxylic Acid]
IC50 (RPMI 8226 cells [1]; [12]): 169 ± 21 µM | IC50 (RPMI 8226 cells [1]; [13]): < 350 µM | fold more active than the reference compound Hib-ester (RPMI 8226 cells [1]): at least 6 fold | cell death (Trypan blue vital count) (RPMI 8226 cells [8]): significant increase in cell death | proteasome inhibition activity (proteasome [3]): most effective | change of MTT efficacy over time (RPMI 8226 cells [2]): time-dependent effect | IC50 (RPMI 8226 cells [2]; RPMI-8226, 48 h): 85 µM | IC50 (RPMI 8226 cells [2]; RPMI-8226, 72 h): 15 µM | fold more active than Hib-ester in reducing RPMI 8226 cells growth (RPMI 8226 cells [2]; after 24 and 72 h of treatment): twelve-fold more active

Compound: O=C1CC(C(=O)O)C(c2ccccc2)O1 [(2R,3R/2S,3S)-1]
IC50 μM RPMI8226 (RPMI 8226 cells [1]; [9]): n.e.*

Now from value to compound, other results behind:

IC50 μM RPMI8226 (RPMI 8226 cells [1]; [9]): n.e.*
Compound: COC(=O)[C@@H]1CCC(=O)N1 [(S)-3, (S)-Methyl-5-oxopyrrolidine-2-carboxylate]

IC50 μM RPMI8226 (RPMI 8226 cells [1]; [9]): n.e.*
Compound: CC(C)CN1C(=O)CCC(C(=O)O)C1c1ccccc1 [(2R,3R/2S,3S)-17, 1-Isobutyl-6-oxo-2-phenylpiperidine 3-Carboxylic Acid]

IC50 (proteasome [3]): 90 ± 8 µM | activity relative to the opposite enantiomer in the biological assays (proteasome [3]; enantiomers of 13): twofold more active
Compound: O=C(O)C1CC(=O)N(Cc2ccccc2)C1c1ccccc1 (single isomer, unassigned; (-)) [(−)-(2R,3R)-13]
profile in MTT and Trypan blue tests compared with racemate (RPMI 8226 cells [1]): profile comparable with racemate

IC50 (proteasome [3]): 189 ± 17 µM
Compound: O=C(O)C1CC(=O)N(Cc2ccccc2)C1c1ccccc1 (single isomer, unassigned; (+)) [(+)-(2S,3S)-13]
profile in MTT and Trypan blue tests compared with racemate (RPMI 8226 cells [1]): less antiproliferative properties

IC50 μM RPMI8226 (RPMI 8226 cells [1]; [9]): n.e.*
Compound: 1-Benzyl-2-(3,5-dimethoxyphenyl)-5-oxopyrrolidine-3-carboxylic Acid [(2R,3R/2S,3S)-15]

IC50 μM RPMI8226 (RPMI 8226 cells [1]; [9]): n.e.*
Compound: O=C(O)C1CCC(=O)N(Cc2ccccc2)C1c1ccccc1 [(2R,3R/2S,3S)-19, 1-Benzyl-6-oxo-2-phenylpiperidine 3-Carboxylic Acid]

IC50 μM RPMI8226 (RPMI 8226 cells [1]; [9]): n.e.*
Compound: CCCCN1CC(C(=O)OC)CC1=O (racemic) [(S/R)-5, Methyl 1-Butyl-5-oxopyrrolidine-3-carboxylate]

IC50 μM RPMI8226 (RPMI 8226 cells [1]; [9]): n.e.*
Compound: COC(=O)C1CC(=O)N(C)C1 (racemic) [(S/R)-7, Methyl 1-Methyl-5-oxopyrrolidine-3-carboxylate]

proteasome inhibition at the lowest evaluated concentration (proteasome [3]; 10 µM, 24 h): significant inhibition | proteasome inhibition activity (proteasome [3]): most effective
Compound: COC(=O)C1CC(=O)N(Cc2ccccc2)C1c1ccccc1 [(2R,3R/2S,3S)-14, Methyl 1-Benzyl-5-oxo-2-phenylpyrrolidine-3-carboxylate]
IC50 (RPMI 8226 cells [1]; [12]): 61 ± 12 µM | IC50 (RPMI 8226 cells [1]; [13]): < 350 µM | fold more active than the reference compound Hib-ester (RPMI 8226 cells [1]): 34 fold | fold more active than the reference compound Hib-ester (RPMI 8226 cells [1]; listed as 14): at least 6 fold | cell death (Trypan blue vital count) (RPMI 8226 cells [8]): significant increase in cell death | change of MTT efficacy over time (RPMI 8226 cells [2]): time-dependent effect | IC50 (RPMI 8226 cells [2]; RPMI-8226, 48 h): 43 µM | IC50 (RPMI 8226 cells [2]; RPMI-8226, 72 h): 34 µM

IC50 μM RPMI8226 (RPMI 8226 cells [1]; [9]): n.e.*
Compound: CCCCN1CC(C(=O)O)CC1=O (racemic) [(S/R)-4]
